Consider one molecule from US20250345318A1, “COMPOUND AND USE THEREOF IN PREVENTING OR TREATING RADIATION DAMAGE” (SIMCERE PHARMACEUTICAL CO., LTD., priority 2022, published 2025).

SMILES strings stand for the structures.

The test system of series [1] is BEAS-2B cells. Description: ROS, SOD, CAT and MDA assays, BEAS-2B (Example 22). Type of series: cell-based, human. The source says: The large amount of reactive oxygen species (ROS) induced by X-ray and the sustained oxidative stress reaction may cause DNA damage. Superoxide dismutase (SOD) and catalase (CAT) exert antioxidant effects, and the lipid oxidation product malondialdehyde (MDA) and ROS can reflect the oxidative stress level in vivo. The intracellular ROS level was detected using the fluorescent probe DCFH-DA. […] The supernatant of BEAS-2B cells was extracted and subjected to an MDA assay and an activity assay for CAT and SOD.

A further series relates to C57BL/6 male mice. Description: Prophylactic JAC4 administration, total body X-ray irradiation, small intestine villus length (Example 6). It is filed as in vivo. Here is the method: C57BL/6 male mice (24.8±1.6 g in body weight) aged 10 weeks were divided into 4 groups. JAC4 (100 mg/kg) or an equal volume of vehicle (polyethylene glycol:ethanol:physiological saline=47.5:7.5:50, v/v/v) was orally administered to the mice once daily for 7 consecutive days. After that, the mice were subjected to total body X-ray irradiation (6 Gy) and JAC4 or vehicle treatment was discontinued. After 7 days, the small intestine tissues were collected for HE staining and inspection, and the small intestine villus length was measured in all groups and statistically analyzed. The specific procedures are as follows: 3 mice were randomly selected from each group for statistical analysis of their small intestine tissue HE staining images, and for each mouse, 6 fields of view were randomly selected for inspection (*** p<0.001).

In series [2] the test system is BEAS-2B cells. Description: Apoptosis (Hoechst 33342) and mitochondrial membrane potential (JC-1), BEAS-2B (Example 22). It is filed as cell-based, human. The protocol:
Severe DSBs may cause apoptosis. SPCA-1 and BEAS-2B cells were plated and cultured for 24 h before they were treated with 10 μM JAC4 for 24 h and 4 Gy X-ray for 24 h. The cells were stained with Hoechst 33342 (see Hoechst staining for apoptosis detection in Example 13) to evaluate the effect of JAC4 in combination with radiation on apoptosis. […] The decrease in mitochondrial membrane potential (JC-1) is a marker event in the early stage of apoptosis. The mitochondrial membrane potential was measured using fluorescent probe JC-1. The red fluorescence indicates a high mitochondrial membrane potential leading to JC-1 aggregate formation, and the green fluorescence indicates the mitochondrial membrane potential depolarization. The fluorescence ratio of red to green reflects the mitochondrial membrane potential and the number of early apoptotic cells.

The subject of the next series is IEC-6 cells. Description: Western blot of DNA repair and apoptosis proteins in irradiated IEC-6 cells (Example 14). It is filed as cell-based.
The next series concerns lung tissue. Description: JWA, γ-H2AX, p-p65 in lung tissue of xenograft mice (immunofluorescence, immunoblot) (Example 21). It is filed as in vivo. An excerpt:
In order to verify the protection effect of JAC4 against X-ray-induced DNA damage in lung tissues, 3 mice were randomly selected from each group to provide the lung tissue for immunofluorescence staining, and proteins were extracted from the lung tissues of the other 3 mice for western immunoblot to detect the expression levels of JWA, γ-H2AX, and p-p65, thereby verifying the relation between the targets of JAC4 and the reduction of DNA damage and apoptotic damages in the lung tissues. The western blot procedures are detailed in Example 4, and the immunofluorescence staining procedures are as follows:
1. Dewaxing and hydration: Prepared paraffin sections were dewaxed in an oven at 60° C. for 2-3 h to ensure a tight attachment between the section and the slide; the sections were then dewaxed by soaking in xylene I, 30 min→xylene II, 30 min→xylene III, 30 min→absolute ethyl alcohol I, shaker, 5 min→absolute ethyl alcohol II, shaker, 5 min→95% ethyl alcohol, shaker, 5 min→85% ethyl alcohol, shaker, 5 min→75% ethyl alcohol, shaker, 5 min→PBS, shaker, 5 min×3.
2. Antigen retrieval: The washed sections were boiled in 500 mL of 1× antigen retrieval solution (20× sodium citrate buffer 25 mL, pH 6.0, diluted to 1× in 475 mL of PBS), then taken out 10 min after the solution started boiling, and cooled to room temperature.
3. Cleaning and blocking: The sections were washed with PBS for 5 min thrice on a shaker. Droplets on the sections were removed carefully without overdrying. The edges of the sections were marked with an immunofluorescent pen, and a blocking buffer (centrifuged at 12,000 g for 5 min) was dropwise added to completely cover the sections. The sections were blocked for 1 h at room temperature.
4. Cleaning and co-incubation with primary antibody: After removing the blocking buffer, the sections were washed with PBS for 5 min thrice on a shaker; the primary antibody (centrifuged at 6,000 g for 5 min) was added dropwise to cover the sections, and the sections were incubated into a humidified chamber overnight at 4° C.
5. Cleaning and co-incubation with secondary antibody: The sections were washed with PBS for 5 min thrice on a shaker before the fluorescent secondary antibody (centrifuged at 6,000 g for 5 min) was added dropwise away from light. The sections were incubated at room temperature for 1 h.
6. Cleaning, nucleus staining, and photographing: The whole procedure was performed away from light. The sections were washed with PBS for 5 min thrice on a shaker. An anti-fluorescence quenching blocker containing DAPI was added dropwise. The cover glass was mounted for sealing and slowly from one side to avoid bubbles. The sealed slices were incubated in a humidified chamber for 15 min and continuously photographed to give images under a laser confocal microscope.

The mark [3] stands for this setting: JAC4 1 μM or 10 μM 24 h + 12 Gy, vs control group.
Where [4] appears, read: JAC4+X-ray group relative to X-ray group.
Setting [5] is: JAC4 group relative to control group.

Take `c1ccc(CSc2nnc(C3COc4ccccc4O3)o2)nc1` (stereo not shown) [JAC4]: in the series on BEAS-2B cells [1] (JAC4+X-ray group), the CAT activity was 3.56±0.02 U/mg, the SOD activity came to 24.20±1.18 U/mg and the “oxidation product MDA level” value is 31.35 ± 4.34 µM/mg. Moreover, in the series with BEAS-2B cells [1] (JAC4 group), the CAT activity is 3.42±0.08 U/mg, the SOD activity amounted to 28.67±1.36 U/mg and the “oxidation product MDA level” value worked out at 24.95 ± 1.63 µM/mg. The ROS level result in the series on BEAS-2B cells [1] (JAC4 in combination with X-ray) was “significantly reduced”. In the series on C57BL/6 male mice (JAC4 100 mg/kg oral 7 days pretreatment, then TBI 6 Gy, tissue 7 days later), the “small intestine villus length” value came to 277.64±33.55 μm. Also, in the series on C57BL/6 male mice (non-radiation, JAC4 100 mg/kg oral 7 days), the “small intestine villus length” value is 306.54±14.00 μm. In addition, in the series with BEAS-2B cells [2] (10 μM JAC4 24 h + 4 Gy X-ray 24 h), the “apoptosis (Hoechst 33342)” value is given as “decreased the pro-apoptotic effect of X-ray”. Moreover, the “mitochondrial membrane potential (JC-1)” value with BEAS-2B cells [2] (JAC4 in combination with X-ray) is recorded as “reversed the X-ray-induced decrease in mitochondrial membrane potential”. For the same molecule, in the series on IEC-6 cells (setting [3]), the “anti-apoptotic proteins (Bcl-2)” value is “increases” and the “pro-apoptotic proteins (spliced PARP1, spliced Caspase-3, spliced Caspase-9, Bax)” value is “decreases”. Moreover, the XRCC1 expression level result in the series with IEC-6 cells (JAC4 treatment after radiation (small intestine tissue and IEC-6 cells)) is given as “increased its expression level”. Besides, in the series with lung tissue (setting [4]), the “JWA protein level in lung tissue (immunoblot)” value is on record as 1.25 folds, the “p-p65 protein level in lung tissue (immunoblot)” value is recorded as 0.61 folds and the “γ-H2AX protein level in lung tissue (immunoblot)” value was found to be 0.83 folds. Also, the “fluorescence intensities of γ-H2AX, TNF-α, and TGF-β1 in lung tissue” value with lung tissue (JAC4+X-ray group vs X-ray group, immunofluorescence) is given as “significantly decreased”. In the series with lung tissue (JAC4 and JAC4+X-ray groups vs control group, immunofluorescence), the “JWA fluorescence intensity in lung tissue” value is recorded as “higher JWA fluorescence intensity as compared with the control group”. In the series with lung tissue (setting [5]), the “JWA protein level in lung tissue (immunoblot)” value is listed as 4.23 folds, the “p-p65 protein level in lung tissue (immunoblot)” value was found to be 0.63 folds and the “γ-H2AX protein level in lung tissue (immunoblot)” value came to 0.91 folds.
